Source: patent US20220323406A1, “METHODS AND COMPOSITIONS FOR DIFFERENTIATING STEM CELLS” (Massachusetts Institute of Technology, priority 2019, published 2022)
Counter-ions that a name gives are not always drawn.

Tests used:
Conditions in all cases: primary screen
[1] = system: ENR+CD organoids (ISC to Paneth cell differentiation); assay: Primary screen: basal (non-stimulated) lysozyme secretion LYZ.NS, 2.5-D 384-well ENR+CD organoid differentiation; format: cell-based, mouse
Source text: (§1) High-throughput screening.

[2] = system: ENR+CD organoids (ISC to Paneth cell differentiation); assay: Primary screen: CCh-stimulated lysozyme secretion LYZ.S, 2.5-D 384-well ENR+CD organoid differentiation; format: cell-based, mouse
Source text: as §1

ENR+CD organoids = assay: Primary screen: ATP (CellTiter-Glo 3D, CTG) cell number/viability, 2.5-D 384-well ENR+CD organoids;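 note: compounds given at plating and again on day 3 over a 6-day differentiation from ENR+CV stem-cell-enriched precursors, ATP measured on day 6, plate median as control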

Row | Compound | Dose.FC.LYZ.NS ([1]; dose 0.08 uM) [log2 fold change] | Z.LYZ.NS (standard z score) ([1]; dose 0.08 uM) | Dose.FC.LYZ.NS ([1]; dose 0.40 uM) [log2 fold change] | Z.LYZ.NS (standard z score) ([1]; dose 0.40 uM) | Dose.FC.LYZ.NS ([1]; dose 2.00 uM) [log2 fold change] | Z.LYZ.NS (standard z score) ([1]; dose 2.00 uM) | Dose.FC.LYZ.NS ([1]; dose 10.00 uM) [log2 fold change] | Z.LYZ.NS (standard z score) ([1]; dose 10.00 uM) | Dose.FC.LYZ.S ([2]; dose 0.08 uM) [log2 fold change] | Dose.FC.LYZ.S ([2]; dose 0.40 uM) [log2 fold change] | Dose.FC.LYZ.S ([2]; dose 2.00 uM) [log2 fold change] | Dose.FC.LYZ.S ([2]; dose 10.00 uM) [log2 fold change] | Dose.FC.CTG (ENR+CD organoids; dose 0.08 uM) [log2 fold change] | Z.CTG (standard z score) (ENR+CD organoids; dose 0.08 uM) | Dose.FC.CTG (ENR+CD organoids; dose 0.40 uM) [log2 fold change] | Z.CTG (standard z score) (ENR+CD organoids; dose 0.40 uM) | Dose.FC.CTG (ENR+CD organoids; dose 2.00 uM) [log2 fold change] | Z.CTG (standard z score) (ENR+CD organoids; dose 2.00 uM) | Dose.FC.CTG (ENR+CD organoids; dose 10.00 uM) [log2 fold change] | Z.CTG (standard z score) (ENR+CD organoids; dose 10.00 uM)
1 | CN(C)CCCCC(=O)Nc1ccc(NC(=S)NC(=O)c2ccc(C(C)(C)C)cc2)cc1 [Tenovin-6] | 0.121 | 1.050 | −0.053 | −0.463 | −0.194 | −1.686 | −0.192 | −1.671 | 0.028 | −0.109 | −0.328 | −0.344 | 0.069 | 0.165 | −0.506 | −1.209 | −1.111 | −2.654 | −1.429 | −3.414
2 | O=C(NCc1ccccc1)c1csc(Nc2ccncn2)n1 [Thiazovivin] | 0.090 | 0.780 | 0.070 | 0.611 | 0.024 | 0.205 | −0.069 | −0.605 | 0.142 | 0.060 | 0.064 | 0.037 | 0.141 | 0.337 | 0.113 | 0.271 | 0.312 | 0.746 | 0.189 | 0.451
3 | CCCSc1nc(N[C@@H]2C[C@H]2c2ccc(F)c(F)c2)c2nnn([C@@H]3C[C@H](OCCO)[C@@H](O)[C@H]3O)c2n1 [Ticagrelor] | 0.115 | 0.998 | −0.032 | −0.276 | 0.120 | 1.041 | 0.020 | 0.170 | 0.042 | 0.000 | 0.018 | 0.022 | −0.080 | – | −0.029 | – | −0.270 | – | −0.241 | –
4 | Clc1ccccc1CN1CCc2sccc2C1 [Ticlopidine HCl] | 0.043 | 0.373 | 0.010 | 0.084 | −0.002 | −0.018 | −0.035 | −0.308 | 0.052 | 0.072 | −0.022 | 0.076 | −0.118 | – | −0.041 | – | −0.234 | – | −0.005 | –
5 | COc1ccc2cc(-c3nc(-c4ccc([S+](C)[O-])cc4)[nH]c3-c3ccncc3)ccc2c1 (stereo not drawn) [Tie2 kinase inhibitor] | 0.009 | 0.080 | 0.002 | 0.019 | 0.181 | 1.577 | −0.031 | −0.274 | 0.018 | −0.021 | 0.024 | −0.097 | 0.005 | 0.012 | 0.074 | 0.177 | −0.314 | −0.750 | −0.549 | −1.311
6 | O=c1oc2cc(O)ccc2s1 [Tioxolone] | 0.099 | 0.864 | 0.012 | 0.101 | 0.053 | 0.462 | 0.023 | 0.202 | 0.149 | 0.000 | 0.023 | 0.028 | 0.246 | – | 0.089 | – | 0.044 | – | 0.328 | –
7 | C[C@@H]1CCN(C(=O)CC#N)C[C@@H]1N(C)c1ncnc2[nH]ccc12 [Tofacitinib (CP-690550, Tasocitinib)] | −0.017 | −0.146 | −0.015 | −0.132 | −0.007 | −0.061 | −0.004 | −0.036 | 0.022 | 0.010 | 0.025 | 0.010 | 0.130 | 0.312 | 0.249 | 0.595 | 0.117 | 0.278 | 0.236 | 0.563
8 | c1ccc(CC2=NCCN2)cc1 [Tolazoline HCl] | 0.144 | 1.255 | 0.084 | 0.728 | 0.088 | 0.765 | −0.049 | −0.424 | 0.169 | 0.128 | 0.069 | −0.063 | 0.245 | – | 0.222 | – | −0.051 | – | −0.208 | –
9 | Cc1c(Cl)cccc1Nc1ccccc1C(=O)O [Tolfenamic Acid] | 0.028 | 0.242 | 0.023 | 0.200 | 0.107 | 0.927 | −0.039 | −0.343 | 0.118 | 0.052 | −0.023 | −0.064 | 0.196 | – | −0.003 | – | −0.159 | – | −0.115 | –
10 | Cc1ccccc1C(=O)Nc1ccc(C(=O)N2CCCC(O)c3cc(Cl)ccc32)c(C)c1 (stereo not drawn) [Tolvaptan] | 0.049 | 0.429 | −0.041 | −0.355 | −0.023 | −0.204 | −0.093 | −0.807 | 0.086 | 0.031 | −0.048 | −0.150 | 0.095 | – | −0.008 | – | −0.094 | – | −0.104 | –
11 | CCOC(=O)N1c2ccc(C(F)(F)F)cc2[C@@H](N(Cc2cc(C(F)(F)F)cc(C(F)(F)F)c2)C(=O)OC)C[C@H]1CC [Torcetrapib] | 0.114 | 0.991 | −0.063 | −0.546 | −0.136 | −1.185 | −0.012 | −0.108 | 0.320 | 0.045 | −0.098 | −0.056 | 0.283 | – | 0.061 | – | −0.121 | – | −0.151 | –
